Assay results reported in the supplement of paper PMC10307832.

Key:
Assay in all cases: relative viability (nuclei count vs DMSO), 5 days (fraction); higher = more cells survive
JZL-184 + Lapatinib = compound: C1CN(CCC1C(C2=CC3=C(C=C2)OCO3)(C4=CC5=C(C=C4)OCO5)O)C(=O)OC6=CC=C(C=C6)[N+](=O)[O-] [JZL-184] + CS(=O)(=O)CCNCc1ccc(-c2ccc3ncnc(Nc4ccc(OCc5cccc(F)c5)c(Cl)c4)c3c2)o1 [Lapatinib] (partner 2 µM)
Procedure, shortened: (§1)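 Values are medians from duplicate plates. Each reflects relative viability, defined as the nuclei count of treated wells over that of vehicle wells. Lung cancer cell lines in 1536-well plates were pin-tool dosed one day after seeding with one drug alone or with a fixed anchor-drug dose plus five library-drug doses (not always all listed) in √10 steps, then fixed, stained and imaged at 4× after 5 days.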

JZL-184 + Pictilisib = compound: C1CN(CCC1C(C2=CC3=C(C=C2)OCO3)(C4=CC5=C(C=C4)OCO5)O)C(=O)OC6=CC=C(C=C6)[N+](=O)[O-] [JZL-184] + CS(=O)(=O)N1CCN(Cc2cc3nc(-c4cccc5[nH]ncc45)nc(N4CCOCC4)c3s2)CC1 [Pictilisib] (partner 1 µM)
Procedure, shortened: as §1

JZL-184 + Alpelisib = compound: C1CN(CCC1C(C2=CC3=C(C=C2)OCO3)(C4=CC5=C(C=C4)OCO5)O)C(=O)OC6=CC=C(C=C6)[N+](=O)[O-] [JZL-184] + Cc1nc(NC(=O)N2CCC[C@H]2C(N)=O)sc1-c1ccnc(C(C)(C)C(F)(F)F)c1 [Alpelisib] (partner 2 µM)
Procedure, shortened: as §1

JZL-184 + Dasatinib = compound: C1CN(CCC1C(C2=CC3=C(C=C2)OCO3)(C4=CC5=C(C=C4)OCO5)O)C(=O)OC6=CC=C(C=C6)[N+](=O)[O-] [JZL-184] + Cc1nc(Nc2ncc(C(=O)Nc3c(C)cccc3Cl)s2)cc(N2CCN(CCO)CC2)n1 [Dasatinib] (partner 0.075 µM)
Procedure, shortened: as §1

JZL-184 + Phenformin = compound: C1CN(CCC1C(C2=CC3=C(C=C2)OCO3)(C4=CC5=C(C=C4)OCO5)O)C(=O)OC6=CC=C(C=C6)[N+](=O)[O-] [JZL-184] + N=C(N)NC(=N)NCCc1ccccc1 [Phenformin] (partner 250 µM)
Procedure, shortened: as §1

Cell Line	relative viability (JZL-184 + Lapatinib; first compound 0.04 µM)	relative viability (JZL-184 + Lapatinib; first compound 0.4 µM)	relative viability (JZL-184 + Lapatinib; first compound 1.265 µM)	relative viability (JZL-184 + Lapatinib; first compound 4 µM)	relative viability (JZL-184 + Pictilisib; first compound 0.04 µM)	relative viability (JZL-184 + Pictilisib; first compound 0.4 µM)	relative viability (JZL-184 + Pictilisib; first compound 1.265 µM)	relative viability (JZL-184 + Pictilisib; first compound 4 µM)	relative viability (JZL-184 + Alpelisib; first compound 0.04 µM)	relative viability (JZL-184 + Alpelisib; first compound 0.4 µM)	relative viability (JZL-184 + Alpelisib; first compound 1.265 µM)	relative viability (JZL-184 + Alpelisib; first compound 4 µM)	relative viability (JZL-184 + Dasatinib; first compound 0.04 µM)	relative viability (JZL-184 + Dasatinib; first compound 0.4 µM)	relative viability (JZL-184 + Dasatinib; first compound 1.265 µM)	relative viability (JZL-184 + Dasatinib; first compound 4 µM)	relative viability (JZL-184 + Phenformin; first compound 0.04 µM)	relative viability (JZL-184 + Phenformin; first compound 0.4 µM)	relative viability (JZL-184 + Phenformin; first compound 1.265 µM)	relative viability (JZL-184 + Phenformin; first compound 4 µM)
PC-14	0.39	0.316	0.325	0.327	0.867	0.619	0.722	0.589	0.975	0.892	0.965	0.847	0.293	0.271	0.287	0.255	0.756	0.473	0.72	0.504
RERF-LC-KJ	0.961	0.835	0.874	0.772	0.508	0.513	0.676	0.47	0.753	0.761	0.837	0.804	0.909	0.72	0.864	0.759	0.479	0.357	0.382	0.371
SK-LU-1	1.21	0.814	0.962	0.822	0.631	0.517	0.7	0.611	1.51	0.931	1.3	1.06	0.183	0.196	0.194	0.207	0.528	0.504	0.677	0.564
SK-MES-1	0.424	0.434	0.43	0.415	0.348	0.408	0.389	0.349	0.938	0.851	0.863	0.896	0.332	0.486	0.359	0.445	0.736	0.64	0.688	0.615
SW 1573	1.25	1.15	1.25	1.01	0.609	0.364	0.491	0.498	0.873	0.605	0.894	0.75	0.638	0.379	0.548	0.42	0.446	0.296	0.373	0.283
UMC-11	1.26	0.898	1.05	0.947	1.16	0.808	0.984	0.824	1.39	0.904	0.924	0.96	0.662	0.474	0.494	0.447	0.289	0.319	0.3	0.331
